Reference: ChEMBL document CHEMBL5634149, “Covalent and noncovalent strategies for targeting Lys102 in HIV-1 reverse transcriptase” (Eur J Med Chem, 2023)

How the values were obtained:
[1] = target: Human immunodeficiency virus type 1 reverse transcriptase (Human immunodeficiency virus 1, UniProt Q72547); experiment: Inhibition of HIV1 reverse transcriptase using r(A)350 template and d(T)16 primer as substrate preincubated for 1 hr before adding substrate by PicoGreen EnzChek Reverse Transcriptase Assay
[2] = test system: MT2; experiment: Cytotoxicity against human MT2 cells assessed as inhibition of cell growth; format: toxicity, cell-based
[3] = test system: Human immunodeficiency virus 1; experiment: Anti-viral activity against wild type HIV1 strain IIIB infected in human MT2 cells assessed as protection of cells from infection; format: functional, organism-based; conditions: Human immunodeficiency virus 1, IIIB
[4] = Therapeutic index, ratio of CC50 for cytotoxicity against human MT2 cells to EC50 for antiviral activity against wild type HIV1 strain IIIB infected in human MT2 cells assessed as protection of cells from infection; format: toxicity, cell-based; conditions: read-out: TI

Row | SMILES | IC50 [1] | CC50 [2] | EC50 [3] | selectivity ratio [4]
1 | N#Cc1cc(Cl)cc(Oc2cc(CCNC(=O)CCl)ccc2Cl)c1 | 750 nM | 2700 nM | – | –
2 | CN(C)C(=O)CCOc1ccccc1Oc1cccn2cc(C#N)cc12 | 20 nM | > 100000 nM | 36 nM | –
3 | C=CC(=O)Nc1cccc(CCOc2cc(Cl)ccc2Oc2cc(Cl)cc(C#N)c2)c1 | 60 nM | 17000 nM | 3600 nM | –
4 | C=CC(=O)N(C)CCOc1cc(Cl)ccc1Oc1cccc2cc(C#N)ccc12 | 25 nM | 16000 nM | 17 nM | –
5 | C=CC(=O)N(C)CCOc1ccc(Cl)c(Oc2cccn3cc(C#N)cc23)c1 | 70 nM | 31000 nM | 3900 nM | –
6 | C=CC(=O)Nc1cccc(COc2cc(Cl)ccc2Oc2cc(Cl)cc(C#N)c2)c1 | 900 nM | 19000 nM | – | –
7 | CN(C)C(=O)CCOc1ccccc1Oc1cccc2cc(C#N)ccc12 | 20 nM | 33000 nM | 3 nM | –
8 | N#Cc1cc2c(Oc3ccccc3OCCC(=O)NCC(F)F)cccn2c1 | 1300 nM | > 100000 nM | 2100 nM | –
9 | C=CC(=O)NCCOc1ccc(Cl)c(Oc2cc(Cl)cc(C#N)c2)c1 | 1100 nM | 32000 nM | – | –
10 | C=CC(=O)N(C)CCOc1ccccc1Oc1cccc2cc(C#N)ccc12 | < 10 nM | 4000 nM | 1 nM | –
11 | N#Cc1cc2c(Oc3ccccc3OCCC(=O)N3CCCC3)cccn2c1 | 20 nM | > 100000 nM | 17 nM | –
12 | CN(CCc1ccc(Cl)c(Oc2cc(Cl)cc(C#N)c2)c1)C(=O)CCl | 4400 nM | 470 nM | – | –
13 | C=CS(=O)(=O)c1cccc(CCOc2cc(Cl)ccc2Oc2cc(Cl)cc(C#N)c2)c1 | 9000 nM | 16000 nM | – | –
14 | C=CC(=O)N(C)CCOc1cc(Cl)ccc1Oc1cc(Cl)cc(C#N)c1 | 60 nM | 27000 nM | 400 nM | –
15 | N#Cc1cc2c(Oc3ccccc3OCCC(=O)N3CCOCC3)cccn2c1 | 60 nM | > 100000 nM | 190 nM | –
16 | C=CC(=O)N(C)CCc1ccc(Cl)c(Oc2cc(Cl)cc(C#N)c2)c1 | 500 nM | 50000 nM | 6200 nM | –
17 | C=CS(=O)(=O)CCc1ccc(Cl)c(Oc2cc(Cl)cc(C#N)c2)c1 | 100000 nM | 6000 nM | – | –

Row | SMILES | IC50 [1] | CC50 [2] | EC50 [3] | selectivity ratio [4]
18 | C=CC(=O)n1c(=O)n(CCOc2cc(Cl)ccc2Oc2cc(Cl)cc(C#N)c2)c2ccccc21 | 150 nM | 8000 nM | 470 nM | –
19 | C=CC(=O)N(C)CCOc1ccccc1Oc1cccn2cc(C#N)cc12 | < 10 nM | 8800 nM | 3 nM | –
20 | C=CC(=O)N(C)CCOc1ccccc1Oc1cc(Cl)cn2cc(C#N)cc12 | 20 nM | 33000 nM | 48 nM | –
21 | N#Cc1ccc2c(Oc3ccccc3OCCC(=O)N3CCCC3)cccc2c1 | 20 nM | 20000 nM | 14 nM | –
22 | C=CC(=O)NCCc1ccc(Cl)c(Oc2cc(Cl)cc(C#N)c2)c1 | 400 nM | 29000 nM | 3100 nM | –
23 | C=CC(=O)N(C)CCOc1ccc(Cl)c(Oc2cc(Cl)cc(C#N)c2)c1 | 750 nM | 17000 nM | 10000 nM | –
24 | N#Cc1cc(Cl)cc(Oc2ccc(Cl)cc2OCCc2cccc(S(=O)(=O)F)c2)c1 | 150 nM | 70000 nM | 45000 nM | –
25 | CN(CCOc1ccc(Cl)c(Oc2cc(Cl)cc(C#N)c2)c1)C(=O)CCl | 1200 nM | 1300 nM | – | –
26 | N#Cc1cc(Cl)cc(Oc2ccc(Cl)cc2OCc2ccccc2)c1 | 1300 nM | > 100000 nM | 41000 nM | –
27 | C=CC(=O)NCCOc1cc(Cl)ccc1Oc1cc(Cl)cc(C#N)c1 | 60000 nM | 42000 nM | 12500 nM | –
28 | N#Cc1cc(Cl)cc(Oc2cc(OCCNC(=O)CCl)ccc2Cl)c1 | 2750 nM | 5800 nM | – | –
29 | C=CC(=O)N(C)CCOc1ccc(Cl)c(Oc2cccc3cc(C#N)ccc23)c1 | < 10 nM | 25000 nM | 8500 nM | –
30 | C=CC(=O)N(C)CCOc1cc(Cl)ccc1Oc1cccn2cc(C#N)cc12 | 26 nM | 30000 nM | 28 nM | –
31 | C=CS(=O)(=O)CCOc1ccc(Cl)c(Oc2cc(Cl)cc(C#N)c2)c1 | 8000 nM | 7500 nM | 5700 nM | –
32 | C=CC(=O)n1c(=O)n(CCOc2ccccc2Oc2cccc3cc(C#N)ccc23)c2ccccc21 | < 5 nM | 4500 nM | 1 nM | 9000
33 | N#Cc1cc(Cl)cc(Oc2ccc(Cl)cc2OCCc2ccccc2)c1 | 60 nM | > 100000 nM | 3100 nM | –
34 | N#Cc1cc(Cl)cc(Oc2ccc(Cl)cc2OCCn2cc(Cl)c(=O)[nH]c2=O)c1 | – | – | 17 nM | –
